pIC50: −log10 of the molar value. Counter-ions that a name gives are not always drawn. Like-named read-outs stand apart in the source and are kept apart here.
Key:
[1] = test system: L-type Ca channels; experiment: Inhibition of 45Ca uptake through L-type (dihydropyridine-sensitive) calcium channels in GH4C1 pituitary cells; type: cell-based; conditions: high K+ depolarization-induced 45Ca uptake, read-out: IC50, block of ^45Ca uptake
Experimental: Compounds of the invention representative of each of the major classes of agents claimed herein were tested to determine their ability to inhibit voltage-activated, dihydropyridine-sensitive L-type calcium channels in clonal GH4C1 pituitary cells. Said voltage-activated L-type calcium channels are found in cardiac muscle, vascular smooth muscle, and the cardiac Purkije cell conduction system. They are the sites of action of the major classes of Ca antagonists employed to treat hypertension, angina, cardiac arrhythmias, and related disorders. L-type Ca channels are also the sites of action of certain neuroprotective dihydropyridine Ca antagonists such as nimodipine.
The uptake of ^45Ca into GH4C1 cells was performed by an adaptation of the method of Tan, K. et al. (J. Biol. Chem., 259:418-426 (1984)). The principle of the method involves activating ion permeation through synaptosomal calcium channels by high K^+-induced depolarization of the synaptosomal preparation. The uptake of ^45Ca measured by this procedure is mediated by presynaptic L-type calcium channels, and is sensitive to dihydropyridine, phenylalkylamine, and benzothiazipine Ca antagonists at therapeutically relevant concentrations [Tashjian et al., ibid.]. The adaptation of the aforementioned method involves growing GH4C1 cells in 96-well culture plates, and is designed to provide a rapid and quantitative determination of the potency of various compounds in inhibiting ^45Ca uptake through L-type Ca channels.
GH4 cells, stored in liquid nitrogen, are suspended in 15 ml growth medium (Ham's F-10 medium plus 15% heat-inactivated horse serum and 2.5% heat-inactivated fetal bovine serum). The cells are centrifuged, resuspended, and then added to T-75 flasks containing 12-15 mls Growth Medium, and incubated at 37° C. for approximately 1 week. The cells are them removed from the T75 flask after dissociation from the walls of the flask by treatment for 5 minutes at 37° C. with 1 mg/ml Viocase. The Viocase is decanted, and the cells are resuspended in ˜200 ml of Growth Medium. The cells are then aliquoted (200 μl/well) into each well of several 96 well plates. The cells are then grown under the aforementioned conditions for 3-4 weeks, with replacement of Growth Medium occurring twice per week. Cells are fed growth medium 24 hours before they are employed for ^45Ca uptake determinations.
At the time of the assay, media Is aspirated from each 96-well plate using a manifold designed to allow 50 μL of liquid to remain in each well. Each plate is washed and aspirated twice with a low K^+ buffer solution “LKHBBS” (in mM 5 KCl, 145 NaCl, 10 Hepes, 1 MgCl2, […], 10 glucose, pH 7.4), 200 μl/well. Each plate is incubated for 10 minutes at 37° C., and aspirated as above. To each well of each plate, 50 μl of HBBS containing the drug to be tested in twice the final concentration is added. The plates are incubated for 10 minutes at room temperature. To each well of each plate, 50 μl of either of two solutions are added:
(a) LKHBBS containing 1 μCi of carrier-free ^45Ca, or
(b) HKHBBS (a high K^+ buffer containing 150 mM KCl and no NaCl, but otherwise identical to LKHBBS).
Each plate is then incubated for 5 minutes at room temperature, aspirated as above, and quenched with 200 μl/well of Quench Buffer (Ca-free LKHBBS containing 10 mM Tris-EGTA). Each plate is aspirated and rinsed with Quench Buffer a second time, then carefully aspirated to dryness. To each well of each plate 100 μl of High Safe II scintillation fluid is added. The plates are sealed, shaken, and subjected to scintillation spectrophotometry on a Microbeta 96-well Scintillation Counter (Wallac, Gaithersburg, Md., USA).
Net depolarization-induced ^45Ca uptake was determined for each concentration of each compound tested, as the difference between ^45Ca uptake in HKBBS and LK buffers. Results were plotted as % inhibition of depolarization-induced ^45Ca uptake vs. [compound] for each compound tested.

[2] = test system: audiogenic seizures in DBA/2 mice; experiment: In vivo anticonvulsant activity in the DBA/2 mouse model (audiogenic seizures); conditions: 30 minutes prior to auditory stimulus
Experimental: Compounds were tested for their effectiveness in preventing seizures in DBA/2 mice which have a unique sensitivity to auditory stimulation. Exposure to loud high-frequency sounds can trigger seizure activity in these animals. This sensitivity develops from postnatal day 12 and peaks around day 21 and slowly diminishes as the animals mature. The unusual response to auditory stimulation in this strain of mouse is believed to be due to a combination of early myelination (causing an unusually low excitatory threshold) and delayed development of inhibitory mechanisms. Glutamate, the predominant excitatory neurotransmitter, has been implicated in this response. Blockade of glutamate receptors of the NMDA and AMPA subtypes, prevents audiogenic seizures in these mice. Compounds that block the release of glutamate should similarly act to prevent seizure activity, and may be therapeutic in other neurologic disorders such as stroke, which also involves glutamate-mediated damage.
Mice were injected intraperitoneally with the compound specified in Table V below or with vehicle control, 30 minutes prior to being placed in a bell jar and turning on the auditory stimulus (12 KHz sine wave at 110-120 db). Administered doses are specified in Table V as milligram of compound per kilogram bodyweight of mouse. The auditory stimulus was left on for 60 seconds and mice reactions were timed and recorded.
Percentage inhibition was determined with reference to vehicle controls.

[3] = test system: veratridine-induced 3H-glutamate release from brain nerve terminals (voltage-activated presynaptic Na channels); experiment: Inhibition of veratridine-induced 3H-glutamate release, rapid superfusion of synaptosomes; type: biochemical, rat
[4] = test system: presynaptic Ca channels; experiment: Inhibition of 45Ca uptake through presynaptic Ca channels in brain synaptosomes; type: biochemical, mammalian; conditions: high K+ depolarization-induced 45Ca uptake, read-out: IC50, block of ^45Ca uptake
Experimental: Compounds of the invention were tested to determine their ability to inhibit voltage-activated calcium channels in nerve terminals of mammalian brain. Said voltage-activated calcium channels directly control neurotransmitter release (see Nachsen, D. A. et al., J. Gen Physiol., 79:1065-1087 (1982)). The uptake of ^45Ca into brain synaptosomes was performed by an adaptation of the method of Nachsen and Blaustein (J. Physiol., 361:251-258 (1985)), as previously described [Goldin et al., PCT/US92/01050]. The principle of the method involves opening ion permeation through synaptosomal calcium channels by high K^+-induced depolarization of the synaptosomal preparation. The rapid component of ^45Ca uptake measured by this procedure is mediated by presynaptic calcium channels.
Briefly, synaptosomes are prepared by the method of Hajos (Brain Res., 93:485-489 (1975)). Freshly prepared synaptosomes (8 μl) were suspended In low potassium “LK” buffer (containing 3 mM KCl). Test compounds in 8 μl LK were added to synaptosomes to final concentrations ranging from 0.3 μM to 100 μM, and the mixture was preincubated for 5 minutes at room temperature. ^45Ca uptake was then initiated by adding isotope in either LK or in buffer (“HK”) containing high [potassium] (150 mM KCl). After 5 seconds, the ^45Ca uptake was stopped by adding 0.9 ml quench buffer (LK+10 mM EGTA). This solution was then filtered under vacuum and the filters washed with 15 ml of quench buffer.
Washed filters were subjected to scintillation spectrophotometry to determine the extent of ^45Ca uptake. Net depolarization-induced ^45Ca uptake was determined for each concentration of each compound tested, as the difference between ^45Ca uptake in HK and LK buffers. Results were plotted as % inhibition of depolarization-induced ^45Ca uptake vs. [compound] for each compound tested. Representative IC50 for inhibition of depolarization-induced ^45Ca uptake are presented below in the tables (2a-2d) below which together are identified as Table 2.

[5] = test system: depolarization-induced 3H-glutamate release from brain nerve terminals; experiment: Inhibition of 3H-glutamate release, high [K+] depolarization, rapid superfusion of synaptosomes; type: biochemical; conditions: 3 μM compound, rat brain synaptosomes
[6] = target: Type II neuronal voltage-activated sodium channels (Rattus norvegicus, UniProt P04775); experiment: cell-based
Type II neuronal voltage-activated sodium channels, sequence (P04775 whole entry): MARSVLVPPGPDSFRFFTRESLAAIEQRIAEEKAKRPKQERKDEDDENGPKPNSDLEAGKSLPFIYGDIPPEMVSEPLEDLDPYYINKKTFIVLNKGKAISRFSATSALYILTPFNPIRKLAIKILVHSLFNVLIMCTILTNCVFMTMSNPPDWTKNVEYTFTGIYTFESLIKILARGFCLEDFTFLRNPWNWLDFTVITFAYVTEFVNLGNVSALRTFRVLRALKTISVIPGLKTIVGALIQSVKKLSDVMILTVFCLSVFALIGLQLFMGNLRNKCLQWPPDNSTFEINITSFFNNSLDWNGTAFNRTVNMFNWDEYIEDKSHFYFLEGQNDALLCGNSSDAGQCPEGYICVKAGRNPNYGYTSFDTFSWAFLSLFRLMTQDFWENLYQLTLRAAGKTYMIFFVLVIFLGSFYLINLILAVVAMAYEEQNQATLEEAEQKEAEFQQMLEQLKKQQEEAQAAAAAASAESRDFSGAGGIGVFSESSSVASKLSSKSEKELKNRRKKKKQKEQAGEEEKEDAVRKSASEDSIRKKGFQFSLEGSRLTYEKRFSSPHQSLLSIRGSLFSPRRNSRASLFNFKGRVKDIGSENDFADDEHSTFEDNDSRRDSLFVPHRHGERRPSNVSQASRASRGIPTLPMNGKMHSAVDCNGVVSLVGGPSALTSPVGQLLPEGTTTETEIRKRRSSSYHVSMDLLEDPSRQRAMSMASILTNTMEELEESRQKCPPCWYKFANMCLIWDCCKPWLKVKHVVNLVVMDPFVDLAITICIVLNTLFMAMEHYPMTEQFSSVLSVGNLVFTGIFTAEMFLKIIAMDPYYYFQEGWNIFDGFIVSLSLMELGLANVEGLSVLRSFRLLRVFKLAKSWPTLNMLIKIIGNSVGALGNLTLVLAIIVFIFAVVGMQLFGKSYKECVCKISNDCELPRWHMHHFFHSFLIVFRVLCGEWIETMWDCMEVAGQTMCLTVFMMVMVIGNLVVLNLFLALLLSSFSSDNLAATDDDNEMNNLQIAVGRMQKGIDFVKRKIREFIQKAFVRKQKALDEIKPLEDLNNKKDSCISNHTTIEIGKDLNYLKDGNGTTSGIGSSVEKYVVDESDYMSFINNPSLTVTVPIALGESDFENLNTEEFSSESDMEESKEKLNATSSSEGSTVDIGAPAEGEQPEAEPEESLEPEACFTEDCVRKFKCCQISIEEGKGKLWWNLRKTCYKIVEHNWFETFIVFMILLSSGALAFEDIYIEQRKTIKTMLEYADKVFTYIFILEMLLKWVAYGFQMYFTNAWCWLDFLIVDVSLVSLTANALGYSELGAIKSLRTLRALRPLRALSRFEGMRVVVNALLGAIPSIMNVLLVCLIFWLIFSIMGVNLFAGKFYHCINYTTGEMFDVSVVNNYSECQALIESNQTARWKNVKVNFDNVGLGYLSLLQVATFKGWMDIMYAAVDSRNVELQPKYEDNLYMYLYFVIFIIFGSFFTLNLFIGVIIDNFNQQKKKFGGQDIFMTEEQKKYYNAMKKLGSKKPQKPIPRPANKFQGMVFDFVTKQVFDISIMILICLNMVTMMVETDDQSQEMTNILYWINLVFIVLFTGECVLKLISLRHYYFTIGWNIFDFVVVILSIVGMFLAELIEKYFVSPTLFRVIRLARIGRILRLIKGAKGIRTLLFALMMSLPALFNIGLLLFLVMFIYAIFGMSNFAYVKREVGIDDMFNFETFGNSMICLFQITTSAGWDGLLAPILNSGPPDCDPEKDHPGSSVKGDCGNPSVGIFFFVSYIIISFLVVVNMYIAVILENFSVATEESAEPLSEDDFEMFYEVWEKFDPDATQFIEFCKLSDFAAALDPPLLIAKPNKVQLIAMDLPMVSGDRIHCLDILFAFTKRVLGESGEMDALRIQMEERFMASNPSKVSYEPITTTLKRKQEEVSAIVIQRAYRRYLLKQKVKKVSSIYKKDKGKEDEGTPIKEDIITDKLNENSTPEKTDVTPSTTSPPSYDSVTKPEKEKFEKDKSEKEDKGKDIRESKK

| Compound | pIC50 [1] | Audiogenic Response % Inhib. ([2]; 10 mg/kg intraperitoneally) | Audiogenic Response % Inhib. ([2]; 20 mg/kg intraperitoneally) | Audiogenic Response % Inhib. ([2]; 40 mg/kg intraperitoneally) | % Inhibition of ^3H-Glu Rel @ 1 μM (*veratridine-induced glutamate release assay) ([3]; 1 μM compound, 50 μM veratridine-induced release, rat brain synaptosomes) | pIC50 [4] | % Inhibition of ^3H-Glu Rel @ 3 μM [5] | pIC50 [6] | % Inhibition of ^3H-Glu Rel @ 1 μM (*veratridine-induced glutamate release assay) [3] | pIC50 ([6]; veratridine (100 μM)-induced, tetrodotoxin-sensitive uptake, CHO cells expressing rat brain Type II Na channels, read-out: IC50, block of ^14C guanidinium uptake) |
| --- | --- | --- | --- | --- | --- | --- | --- | --- | --- | --- |
| CCC(C)c1ccc(N(Cc2ccc(C(C)(C)C)cc2)C(=N)N)cc1 (stereo not shown) [Example 1, N-(4-sec-Butylphenyl)-N-(4-tert-butylbenzyl)guanidine.HCl] | 5.77 | 54% | 80.5% | 91% | 67* % | 5.21 | 61% | 6.10 | – | – |
| CC(C)(C)c1ccc(NC(=N)Nc2ccc(C(C)(C)C)cc2)cc1 [Example 13, N,N′-Bis(4-tort-butylphenyl)guanidine] | 5.39 | – | – | – | – | 5.82 | 70% | – | 62* % | 6.05 |
